Numbers after ± are expanded uncertainties.
What was measured:
[1] = 100 kPa, Liquid; for speed of sound: Frequency=3 MHz, Sing-around technique in a fixed-path interferometer; for mass density: Vibrating tube method
[2] = mn = molality of the nth substance listed, in mol/kg; conditions: 100 kPa, Liquid, m2 = 0; for speed of sound: Frequency=3 MHz, Sing-around technique in a fixed-path interferometer; for mass density: Vibrating tube method

Row | Structure (SMILES) | speed of sound ([1]; 298.15 K) [m/s] | mass density ([1]; 298.15 K) [kg/m3] | speed of sound ([1]; 303.15 K) [m/s] | mass density ([1]; 303.15 K) [kg/m3] | speed of sound ([1]; 308.15 K) [m/s] | mass density ([1]; 308.15 K) [kg/m3] | speed of sound ([1]; 313.15 K) [m/s] | mass density ([1]; 313.15 K) [kg/m3] | speed of sound ([1]; 318.15 K) [m/s] | mass density ([1]; 318.15 K) [kg/m3] | speed of sound ([2]; 298.15 K) [m/s] | mass density ([2]; 298.15 K) [kg/m3] | speed of sound ([2]; 303.15 K) [m/s] | mass density ([2]; 303.15 K) [kg/m3] | speed of sound ([2]; 308.15 K) [m/s] | mass density ([2]; 308.15 K) [kg/m3] | speed of sound ([2]; 313.15 K) [m/s] | mass density ([2]; 313.15 K) [kg/m3] | speed of sound ([2]; 318.15 K) [m/s] | mass density ([2]; 318.15 K) [kg/m3]
1 | C[S+](C)[O-] [dimethyl sulfoxide] | 1484.6 ± 1.2 | 1095.28 ± 0.21 | 1467.7 ± 1.2 | 1090.26 ± 0.26 | 1450.8 ± 1.2 | 1085.24 ± 0.24 | 1434.1 ± 1.2 | 1080.22 ± 0.24 | 1417.5 ± 1.2 | 1075.21 ± 0.26 |  |  |  |  |  |  |  |  |  | 
2 | C[S+](C)[O-] [dimethyl sulfoxide] + CCCCCCCC[N+]1(C)CCOCC1.O=S(=O)([N-]S(=O)(=O)C(F)(F)F)C(F)(F)F |  |  |  |  |  |  |  |  |  |  | 1484.6 ± 1.2 | 1095.28 ± 0.21 | 1467.7 ± 1.2 | 1090.26 ± 0.21 | 1450.8 ± 1.2 | 1085.24 ± 0.21 | 1434.1 ± 1.2 | 1080.22 ± 0.21 | 1417.5 ± 1.2 | 1075.21 ± 0.21
3 | C[S+](C)[O-] [dimethyl sulfoxide] + CCCC[N+]1(C)CCOCC1.O=S(=O)([N-]S(=O)(=O)C(F)(F)F)C(F)(F)F |  |  |  |  |  |  |  |  |  |  | 1484.6 ± 1.2 | 1095.28 ± 0.24 | 1467.7 ± 1.2 | 1090.26 ± 0.24 | 1450.8 ± 1.2 | 1085.24 ± 0.24 | 1434.1 ± 1.2 | 1080.22 ± 0.24 | 1417.5 ± 1.2 | 1075.21 ± 0.24
4 | C[S+](C)[O-] [dimethyl sulfoxide] + CC[N+]1(C)CCOCC1.O=S(=O)([N-]S(=O)(=O)C(F)(F)F)C(F)(F)F |  |  |  |  |  |  |  |  |  |  | 1484.6 ± 1.2 | 1095.28 ± 0.26 | 1467.7 ± 1.2 | 1090.26 ± 0.26 | 1450.8 ± 1.2 | 1085.24 ± 0.26 | 1434.1 ± 1.2 | 1080.22 ± 0.26 | 1417.5 ± 1.2 | 1075.21 ± 0.26

— the NIST ThermoML archive (doi:10.1016/j.jct.2015.04.006)
